In ChEMBL document CHEMBL1124596, “Introduction of a putative dopaminergic prodrug moiety into a 6,7-substitution pattern characteristic of certain 2-aminotetralin dopaminergic agonists” (1989):

Test system: Felis catus
Assay: Inhibition of cat cardiac response to cardioaccelerator nerve stimulation, when administered intravenously
Assay type: functional
Details: iv, read-out: ID50 (the source's name)

First: CN1CCc2cccc3c2[C@H]1Cc1ccc(O)c(O)c1-3 [APOMORPHINE]
Second: CCCN(CCC)C1CCc2c(ccc(C)c2O)C1 (centres undefined)
The ED50 of the first is lower: 0.035 µmol/kg for the first, 0.25 µmol/kg for the second.

Going from `CCCN(CCC)C1CCc2cc(O)c(C)cc2C1` (centres undefined) to `CCCN(CCC)C1CCc2cc(C)c(O)cc2C1` (centres undefined), the ED50 falls from 1.75 µmol/kg to 0.54 µmol/kg.
